The values below are quoted from earlier work in patent publication US20070009558A1, “Sugar-free storage-stable antihistaminic syrups” (priority 2004, published 2007).

Where two headings read alike, the source gives them in different places.

Consider `Clc1ccc2c(c1)CCc1cccnc1C2=C1CCNCC1` [Desloratadine, 8-chloro-6,11-dihydro-11-(4-piperdinylidene)-5H-benzo[5,6]cyclohepta[1 ,2-b]pyridine], for which the solubility result is listed as “very soluble” (in ethanol), “very soluble” (in propylene glycol) and “slightly soluble” (in water).
